Results: the supplement of paper PMC10307832

Assays:
Test in all cases: relative viability (nuclei count vs DMSO), 5 days (fraction); higher = more cells survive
Quizartinib + Trametinib = compound: CC(C)(C)c1cc(NC(=O)Nc2ccc(-c3cn4c(n3)sc3cc(OCCN5CCOCC5)ccc34)cc2)no1 [Quizartinib] + CC(=O)Nc1cccc(-n2c(=O)n(C3CC3)c(=O)c3c(Nc4ccc(I)cc4F)n(C)c(=O)c(C)c32)c1 [Trametinib] (partner 0.02 µM)
Procedure, shortened: (§1)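 Lung cancer cell lines were seeded in 1536-well plates and dosed by pin tool the next day, with either a single drug or a fixed anchor-drug dose combined with five library-drug doses (not always all listed) spaced in √10 steps. Five days later, one step fixed the cells and stained their nuclei (final 0.05% Triton X-100, 1% formaldehyde, 1 ug/ml Hoechst), and nuclei were counted on 4× images. Relative viability is the nuclei count in treated wells divided by the count in vehicle wells, and each value is the median of duplicate plates.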

YM155 + Pictilisib = compound: COCC[n+]1c2c(n(Cc3cnccn3)c1C)C(=O)c1ccccc1C2=O [YM155] + CS(=O)(=O)N1CCN(Cc2cc3nc(-c4cccc5[nH]ncc45)nc(N4CCOCC4)c3s2)CC1 [Pictilisib] (partner 1 µM)
Procedure, shortened: as §1

Quizartinib + Luminespib = compound: CC(C)(C)c1cc(NC(=O)Nc2ccc(-c3cn4c(n3)sc3cc(OCCN5CCOCC5)ccc34)cc2)no1 [Quizartinib] + CCNC(=O)c1noc(-c2cc(C(C)C)c(O)cc2O)c1-c1ccc(CN2CCOCC2)cc1 [Luminespib] (partner 0.01 µM)
Procedure, shortened: as §1

YM155 + Olaparib = compound: COCC[n+]1c2c(n(Cc3cnccn3)c1C)C(=O)c1ccccc1C2=O [YM155] + O=C(c1cc(Cc2n[nH]c(=O)c3ccccc23)ccc1F)N1CCN(C(=O)C2CC2)CC1 [Olaparib] (partner 8 µM)
Procedure, shortened: as §1

Cell Line | relative viability (Quizartinib + Trametinib; first compound 0.001 µM) | relative viability (Quizartinib + Trametinib; first compound 0.003162 µM) | relative viability (Quizartinib + Trametinib; first compound 0.01 µM) | relative viability (Quizartinib + Trametinib; first compound 0.03162 µM) | relative viability (Quizartinib + Trametinib; first compound 0.1 µM) | relative viability (YM155 + Pictilisib; first compound 0.002 µM) | relative viability (YM155 + Pictilisib; first compound 0.006325 µM) | relative viability (YM155 + Pictilisib; first compound 0.02 µM) | relative viability (YM155 + Pictilisib; first compound 0.06325 µM) | relative viability (Quizartinib + Luminespib; first compound 0.001 µM) | relative viability (Quizartinib + Luminespib; first compound 0.003162 µM) | relative viability (Quizartinib + Luminespib; first compound 0.01 µM) | relative viability (Quizartinib + Luminespib; first compound 0.03162 µM) | relative viability (Quizartinib + Luminespib; first compound 0.1 µM) | relative viability (YM155 + Olaparib; first compound 0.002 µM) | relative viability (YM155 + Olaparib; first compound 0.006325 µM) | relative viability (YM155 + Olaparib; first compound 0.02 µM) | relative viability (YM155 + Olaparib; first compound 0.06325 µM)
RERF-LC-KJ | 0.797 | 0.849 | 0.942 | 0.62 | 0.844 | 0.527 | 0.51 | 0.55 | 0.593 | 1.12 | 1.19 | 1.38 | 0.96 | 1.12 | 0.825 | 0.801 | 0.95 | 0.858
NCI-H1793 | 0.395 | 0.435 | 0.444 | 0.448 | 0.452 | – | 0.303 | 0.318 | 0.211 | 0.161 | 0.171 | 0.467 | 0.174 | 0.159 | 0.847 | 0.824 | 0.91 | 0.575
NCI-H727 | 0.424 | 0.355 | 0.366 | 0.397 | 0.429 | 0.397 | 0.533 | 0.446 | 0.375 | – | 0.443 | 0.41 | 0.665 | 0.309 | 0.775 | 0.722 | 0.66 | 0.729
SK-LU-1 | 0.464 | 0.372 | 0.515 | 0.394 | 0.434 | 0.606 | 0.496 | 0.483 | 0.545 | 0.205 | 0.191 | 0.212 | 0.201 | 0.232 | 0.422 | 0.442 | 0.516 | 0.327
PC-14 | 0.692 | 0.726 | 0.977 | – | 0.836 | 0.648 | 0.717 | 0.693 | 0.536 | 0.181 | 0.168 | 0.164 | – | 0.127 | 0.292 | 0.205 | 0.281 | 0.155
NCI-H1437 | 0.458 | 0.482 | 0.492 | 0.49 | 0.346 | 0.417 | 0.404 | 0.468 | 0.507 | 1.01 | 1.07 | 1.09 | 0.782 | 0.982 | 0.618 | 0.596 | 0.599 | 0.387
ABC-1 | – | – | – | – | – | 0.637 | 0.594 | 0.341 | 0.197 | 0.67 | 0.445 | 0.504 | – | 0.498 | – | 0.51 | 0.28 | 0.261
EBC-1 | – | – | – | – | – | 0.436 | 0.345 | 0.459 | 0.339 | – | – | – | – | – | 0.819 | 0.743 | 0.799 | 0.622
SK-MES-1 | 0.587 | 0.542 | 0.553 | 0.478 | 0.512 | 0.395 | 0.359 | 0.377 | 0.24 | 0.736 | 0.789 | 0.541 | – | 0.646 | 0.707 | 0.574 | 0.258 | 0.189
LK-2 | 0.796 | 0.671 | 0.801 | 0.765 | 0.789 | 0.565 | 0.541 | 0.475 | 0.53 | 0.162 | – | 0.193 | 0.205 | 0.22 | 0.644 | 0.71 | 0.797 | 0.75
NCI-H2085 | 0.62 | 0.528 | 0.567 | 0.531 | 0.515 | 0.435 | 0.38 | 0.534 | 0.429 | 0.403 | 0.391 | 0.454 | 0.419 | 0.393 | 0.737 | 0.755 | 0.805 | 0.516
NCI-H2087 | 0.233 | 0.217 | 0.223 | 0.202 | 0.19 | 0.868 | 0.762 | 0.931 | 0.642 | – | 0.206 | 0.174 | 0.177 | 0.156 | 0.547 | 0.589 | 0.586 | 0.49
NCI-H2347 | 0.249 | 0.271 | 0.267 | 0.229 | 0.287 | 0.574 | 1.03 | 0.829 | 0.633 | 0.335 | 0.51 | 0.41 | 0.495 | 0.624 | 0.536 | 0.489 | 0.618 | 0.498
HOP-62 | 0.33 | 0.367 | 0.399 | 0.383 | 0.304 | 0.79 | 0.63 | 0.818 | 0.749 | 0.914 | 0.843 | 1.04 | 0.933 | 0.9 | 0.668 | 0.35 | 0.419 | 0.29
SW 1573 | 0.594 | 0.47 | 0.711 | – | 0.655 | 0.484 | 0.465 | 0.426 | 0.0949 | 0.163 | 0.21 | 0.164 | – | 0.255 | 0.5 | 0.409 | 0.21 | 0.0835
IA-LM | – | – | – | – | – | 0.312 | 0.266 | 0.367 | 0.141 | – | – | – | – | – | 0.836 | 0.891 | 0.879 | 0.642
NCI-H522 | 0.688 | 0.741 | 0.796 | 0.53 | 0.727 | – | – | – | – | 1.11 | 1.07 | 0.892 | 1.1 | 1.47 | 0.727 | 0.646 | 0.594 | 0.612
A549 | – | – | – | – | – | 0.511 | 0.454 | 0.378 | 0.0793 | – | – | – | – | – | 0.232 | 0.313 | 0.376 | 0.324
NCI-H1623 | – | – | – | – | – | – | – | – | – | 0.38 | 0.564 | 0.455 | 0.57 | 0.408 | – | – | – | –
HCC-366 | 0.314 | 0.383 | 0.294 | 0.326 | 0.346 | 0.376 | 0.124 | 0.125 | 0.134 | – | – | – | – | – | 0.368 | 0.329 | 0.375 | 0.275
NCI-H1563 | – | – | – | – | – | 0.633 | 0.674 | 0.626 | 0.75 | 0.516 | 0.499 | 0.528 | 0.551 | 0.584 | – | – | – | –
Calu-6 | – | – | – | – | – | 0.879 | 0.605 | 0.169 | 0.13 | – | – | – | – | – | 0.544 | 0.586 | 0.294 | 0.129
HCC-78 | 0.727 | 0.662 | 0.848 | 0.593 | 0.913 | 0.206 | 0.225 | 0.2 | 0.276 | – | – | – | – | – | 0.882 | 0.865 | 0.807 | 1
